Entries after “also recorded” stand apart in the source; their conditions may differ.
Experiments:
[1] = Stability of Form 2 in an airtight glass bottle for up to 24 months under various storage conditions; format: physicochemical; design: key to Appearance: A1: White or almost white powder; key to Identification: I1: Spectrum of test sample identical to spectrum of reference sample; I3: Spectrum of test sample identical to spectrum of reference sample stored at −18° C
Protocol: Stability of 4-[(7-methoxy-2,3-dihydro-1,4-benzothiazepin-4(5H)yl)methyl]benzoic acid hemifumarate Form 2 was evaluated for up to 24 months under various conditions.

[2] = Dynamic vapor sorption (hygroscopicity); format: physicochemical; conditions: DVS, 25° C., 0-90% relative humidity
Protocol: Dynamic vapor sorption (DVS) analysis was performed by measuring mass variation of the crystalline form of 4-[(7-methoxy-2,3-dihydro-1,4-benzothiazepin-4(5H)yl)methyl]benzoic acid hemifumarate as a function of relative humidity using a DVS intrinsic instrument. A 5 mg to 10 mg of a sample of a crystalline form of 4-[(7-methoxy-2,3-dihydro-1,4-benzothiazepin-4(5H)yl)methyl]benzoic acid, hemifumarate was placed into a sample pan of a DVS intrinsic instrument at 25° C. under controlled humidity. The mass variation was recorded as a function of relative humidity.
Measurement of DVS comprised: (a) equilibrating a sample of the crystalline form at 25° C. and 50% relative humidity in a temperature-controlled and humidity controlled chamber until mass variation is less than 0.002% per minute for 6 hours; (b) increasing the relative humidity from 50% to 90% at a rate of 10% per hour; (c) equilibrating the sample at 90% relative humidity until mass variation of less than 0.002% per minute for 6 hours is observed; (d) decreasing the relative humidity from 90% to 0% at a rate of 10% per hour; (e) equilibrating the sample at 0% relative humidity until mass variation of less than 0.002% per minute for 6 hours is observed; and (f) increasing the relative humidity from 0% to 50% at a rate of 10% per hour.

With `COc1ccc2c(c1)CN(Cc1ccc(C(=O)O)cc1)CCS2.O=C(O)/C=C/C(=O)O` [Form 2, 4-[(7-methoxy-2,3-dihydro-1,4-benzothiazepin-4(5H)yl)methyl]benzoic acid, hemifumarate] the Appearance ([1]; 25° C./60% RH, 1 Y) was “A1”, the “Assay of Drug substance (LC)” value ([1]; 25° C./60% RH, 1 Y) was 99.8% and the Identification ([1]; 25° C./60% RH, 1 Y) was “I3”. The “Related substances content (LC) Sum of impurities” value (from here on “Related substances content”) ([1]; 25° C./60% RH, 1 Y) was no more than 0.05%, the Water content ([1]; 25° C./60% RH, 1 Y) was less than 0.1% and the Appearance ([1]; 25° C./60% RH, 2 Y) was “A1”. For the same molecule, the Assay by potentiometry ([1]; 25° C./60% RH, 2 Y) was 99.6%, the “Assay of Drug substance (LC)” value ([1]; 25° C./60% RH, 2 Y) was 99.5% and the Identification ([1]; 25° C./60% RH, 2 Y) was “I3”. For the same molecule, the “Related substances content” value ([1]; 25° C./60% RH, 2 Y) was no more than 0.05%, the Water content ([1]; 25° C./60% RH, 2 Y) was less than 0.1% and the Appearance ([1]; 25° C./60% RH, 3 M) was “A1”. The Assay by potentiometry ([1]; 25° C./60% RH, 3 M) was 100.0%, the “Assay of Drug substance (LC)” value ([1]; 25° C./60% RH, 3 M) was 99.6% and the Identification ([1]; 25° C./60% RH, 3 M) was “I3”. The “Related substances content” value ([1]; 25° C./60% RH, 3 M) was no more than 0.05%, the Water content ([1]; 25° C./60% RH, 3 M) was 0.1% and the Appearance ([1]; 25° C./60% RH, 6 M) was “A1”. The Assay by potentiometry ([1]; 25° C./60% RH, 6 M) was 102.1%, the “Assay of Drug substance (LC)” value ([1]; 25° C./60% RH, 6 M) was 99.7% and the Identification ([1]; 25° C./60% RH, 6 M) was “I3”. The “Related substances content” value ([1]; 25° C./60% RH, 6 M) was no more than 0.05%, the Water content ([1]; 25° C./60% RH, 6 M) was 0.1% and the Appearance ([1]; 25° C./60% RH, 6 W) was “A1”. The Assay by potentiometry ([1]; 25° C./60% RH, 6 W) was 99.7%, the “Assay of Drug substance (LC)” value ([1]; 25° C./60% RH, 6 W) was 102.5% and the Identification ([1]; 25° C./60% RH, 6 W) was “I3”. The “Related substances content” value ([1]; 25° C./60% RH, 6 W) was no more than 0.05%, the Water content ([1]; 25° C./60% RH, 6 W) was less than 0.1% and the Appearance ([1]; 25° C./60% RH, 9 M) was “A1”. The Assay by potentiometry ([1]; 25° C./60% RH, 9 M) was 99.1%, the “Assay of Drug substance (LC)” value ([1]; 25° C./60% RH, 9 M) was 100.6% and the Identification ([1]; 25° C./60% RH, 9 M) was “I3”. The “Related substances content” value ([1]; 25° C./60% RH, 9 M) was no more than 0.05%, the Water content ([1]; 25° C./60% RH, 9 M) was less than 0.1% and the Appearance ([1]; 25° C./60% RH, 18 M) was “A1”. The Assay by potentiometry ([1]; 25° C./60% RH, 18 M) was 99.8%, the “Assay of Drug substance (LC)” value ([1]; 25° C./60% RH, 18 M) was 100.9% and the Identification ([1]; 25° C./60% RH, 18 M) was “I3”. For the same molecule, the “Related substances content” value ([1]; 25° C./60% RH, 18 M) was no more than 0.05%, the Water content ([1]; 25° C./60% RH, 18 M) was 0.1% and the Appearance ([1]; 25° C./60% RH, T0) was “A1”. The Assay by potentiometry ([1]; 25° C./60% RH, T0) was 99.9%, the “Assay of Drug substance (LC)” value ([1]; 25° C./60% RH, T0) was 99.7% and the Identification ([1]; 25° C./60% RH, T0) was “I1”. For the same molecule, the “Related substances content” value ([1]; 25° C./60% RH, T0) was no more than 0.05%, the Water content ([1]; 25° C./60% RH, T0) was 0.1% and the Appearance ([1]; 30° C./65% RH, 1 Y) was “A1”. For the same molecule, the “Assay of Drug substance (LC)” value ([1]; 30° C./65% RH, 1 Y) was 99.5%, the Identification ([1]; 30° C./65% RH, 1 Y) was “I3” and the “Related substances content” value ([1]; 30° C./65% RH, 1 Y) was no more than 0.05%. For the same molecule, the Water content ([1]; 30° C./65% RH, 1 Y) was less than 0.1%, the Appearance ([1]; 30° C./65% RH, 3 M) was “A1” and the Assay by potentiometry ([1]; 30° C./65% RH, 3 M) was 99.8%. For the same molecule, the “Assay of Drug substance (LC)” value ([1]; 30° C./65% RH, 3 M) was 99.7%, the Identification ([1]; 30° C./65% RH, 3 M) was “I3” and the “Related substances content” value ([1]; 30° C./65% RH, 3 M) was no more than 0.05%. For the same molecule, the Water content ([1]; 30° C./65% RH, 3 M) was 0.1%, the Appearance ([1]; 30° C./65% RH, 6 M) was “A1” and the Assay by potentiometry ([1]; 30° C./65% RH, 6 M) was 100.4%. The “Assay of Drug substance (LC)” value ([1]; 30° C./65% RH, 6 M) was 100.2%, the Identification ([1]; 30° C./65% RH, 6 M) was “I3” and the “Related substances content” value ([1]; 30° C./65% RH, 6 M) was no more than 0.05%. For the same molecule, the Water content ([1]; 30° C./65% RH, 6 M) was 0.1%, the Appearance ([1]; 30° C./65% RH, 6 W) was “A1” and the Assay by potentiometry ([1]; 30° C./65% RH, 6 W) was 99.8%. For the same molecule, the “Assay of Drug substance (LC)” value ([1]; 30° C./65% RH, 6 W) was 102.4%, the Identification ([1]; 30° C./65% RH, 6 W) was “I3” and the “Related substances content” value ([1]; 30° C./65% RH, 6 W) was no more than 0.05%. For the same molecule, the Water content ([1]; 30° C./65% RH, 6 W) was less than 0.1%, the Appearance ([1]; 30° C./65% RH, 9 M) was “A1” and the Assay by potentiometry ([1]; 30° C./65% RH, 9 M) was 99.6%. The “Assay of Drug substance (LC)” value ([1]; 30° C./65% RH, 9 M) was 99.7%, the Identification ([1]; 30° C./65% RH, 9 M) was “I3” and the “Related substances content” value ([1]; 30° C./65% RH, 9 M) was no more than 0.05%. The Water content ([1]; 30° C./65% RH, 9 M) was less than 0.1%, the Appearance ([1]; 30° C./65% RH, T0) was “A1” and the Assay by potentiometry ([1]; 30° C./65% RH, T0) was 99.9%. The “Assay of Drug substance (LC)” value ([1]; 30° C./65% RH, T0) was 99.7%, the Identification ([1]; 30° C./65% RH, T0) was “I1” and the “Related substances content” value ([1]; 30° C./65% RH, T0) was no more than 0.05%. For the same molecule, the Water content ([1]; 30° C./65% RH, T0) was 0.1%, the Appearance ([1]; 40° C./75% RH, 3 M) was “A1” and the Assay by potentiometry ([1]; 40° C./75% RH, 3 M) was 99.8%. The “Assay of Drug substance (LC)” value ([1]; 40° C./75% RH, 3 M) was 99.5%, the Identification ([1]; 40° C./75% RH, 3 M) was “I3” and the “Related substances content” value ([1]; 40° C./75% RH, 3 M) was no more than 0.05%. For the same molecule, the Water content ([1]; 40° C./75% RH, 3 M) was 0.1%, the Appearance ([1]; 40° C./75% RH, 6 M) was “A1” and the Assay by potentiometry ([1]; 40° C./75% RH, 6 M) was 100.5%. The “Assay of Drug substance (LC)” value ([1]; 40° C./75% RH, 6 M) was 99.2%, the Identification ([1]; 40° C./75% RH, 6 M) was “I3” and the “Related substances content” value ([1]; 40° C./75% RH, 6 M) was no more than 0.05%. For the same molecule, the Water content ([1]; 40° C./75% RH, 6 M) was 0.1%, the Appearance ([1]; 40° C./75% RH, 6 W) was “A1” and the Assay by potentiometry ([1]; 40° C./75% RH, 6 W) was 99.8%. For the same molecule, the “Assay of Drug substance (LC)” value ([1]; 40° C./75% RH, 6 W) was 102.2%, the Identification ([1]; 40° C./75% RH, 6 W) was “I3” and the “Related substances content” value ([1]; 40° C./75% RH, 6 W) was no more than 0.05%. For the same molecule, the Water content ([1]; 40° C./75% RH, 6 W) was 0.1%, the Appearance ([1]; 40° C./75% RH, T0) was “A1” and the Assay by potentiometry ([1]; 40° C./75% RH, T0) was 99.9%. The “Assay of Drug substance (LC)” value ([1]; 40° C./75% RH, T0) was 99.7%, the Identification ([1]; 40° C./75% RH, T0) was “I1” and the “Related substances content” value ([1]; 40° C./75% RH, T0) was no more than 0.05%. For the same molecule, the Water content ([1]; 40° C./75% RH, T0) was 0.1%, the Appearance ([1]; −18° C., 1 Y) was “A1” and the Water content ([1]; −18° C., 1 Y) was less than 0.1%. For the same molecule, the Appearance ([1]; −18° C., 2 Y) was “A1”, the Water content ([1]; −18° C., 2 Y) was less than 0.1% and the Appearance ([1]; −18° C., 3 M) was “A1”. For the same molecule, the Water content ([1]; −18° C., 3 M) was 0.1%, the Appearance ([1]; −18° C., 6 M) was “A1” and the Water content ([1]; −18° C., 6 M) was 0.1%. The Appearance ([1]; −18° C., 6 W) was “A1”, the Assay by potentiometry ([1]; −18° C., 6 W) was 99.9% and the Identification ([1]; −18° C., 6 W) was “I3”. For the same molecule, the Water content ([1]; −18° C., 6 W) was 0.1%, the Appearance ([1]; −18° C., 9 M) was “A1” and the Assay by potentiometry ([1]; −18° C., 9 M) was 99.7%. The Water content ([1]; −18° C., 9 M) was less than 0.1%, the Appearance ([1]; −18° C., 18 M) was “A1” and the Water content ([1]; −18° C., 18 M) was 0.1%. For the same molecule, the Appearance ([1]; −18° C., T0) was “A1”, the Assay by potentiometry ([1]; −18° C., T0) was 99.9% and the “Assay of Drug substance (LC)” value ([1]; −18° C., T0) was 99.7%. The Identification ([1]; −18° C., T0) was “I1”, the “Related substances content” value ([1]; −18° C., T0) was no more than 0.05% and the Water content ([1]; −18° C., T0) was 0.1%. For the same molecule, the Hygroscopicity [2] was “non-hygroscopic; also recorded: not hygroscopic”.
